# Measurements taken from patent publication US10076567B2, “MPER-liposome conjugates and uses thereof” (Duke University, priority 2013, dated 2018).
# How the values were obtained:
# [1] = test system: Immunogen Peptides; test: NHP#91 Week 14 plasma binding to immunogen peptides by ELISA; format: in vivo, Rhesus macaques; details: NHP#91, Week 14, ELISA log AUC
# Excerpt: (§1) Rhesus macaques were immunized in 5 groups for NHP#87 with the different MPER peptide liposomes. Group 5 animals were immunized with a swarm of all of the MPER peptide liposomes. 4 animals per group. NHP#91 was a study to compare two adjuvants. Group 1 had MPLA alone and Group2 had R848 alone. The immunogen for both groups was the original MPER656 peptide liposome. The idea was to compare group 1 and 2 from this study to group 4 from NHP#87 where the animals received both MPLA and R848.
# (§2) NHP#91 and last group (656+MPLA+R848) is group 4 of NHP#87; Isolated plasma at Week 14 was screened for binding to each immunogen by ELISA. Plotted is the log area under the curve for binding for each individual monkey separated by group. Solid line indicates the average log AUC for each group.
# [2] = test system: MPER-Specific Proteins; test: NHP#91 Week 14 plasma binding to MPER-specific proteins by ELISA; format: in vivo, Rhesus macaques; details: NHP#91, Week 14, ELISA log AUC
# Excerpt: as §1
# as §2, with “NHP#87 (for all panels pre-immune substracted);” for “NHP#87;”
# [3] = test system: 2F5 mAb; test: SPR binding of 2F5 mAb to MPER peptide-liposomes with TLR adjuvants
# Protocol: FIGS. 10A-10C. Interaction of 2F5 mAb with MPER peptide-liposomes conjugated to TLR adjuvants.
# FIG. 21 Binding of BNAb 2F5 and 4E10 to MPER peptide-liposomes described in FIGS. 19-20. Synthetic MPER peptide-liposomes complexed to the indicated MPER peptide and TLR adjuvants (R848, Lipid A) were anchored on a BIAcore sencor ship (L1) and each mAb (2 μg/mL) injected over the surface. Binding shown is after subtraction of non-specific signal measured on a control liposome surface.
# [4] = test system: 2F5 mAb; details: for 2F5 mAb binding response: background subtracted, 10 seconds after the injection was stopped, peptides anchored to liposomes
# Protocol: FIGS. 6A and 6B. […] FIG. 6A. […] FIG. 6B.
# SPR binding assays were performed on a BIAcore 3000 (BIAcore Inc, Piscattaway, N.J.) maintained at 20° C. as previously described (Alam et al, J. Immunol. 178:4424-4435 (2007)). […] Specific binding responses of mAb binding were obtained following subtraction of non-specific binding on the scrambled 2F5 peptide surface.
substance,measurement,setting,value
Monophosphoryl Lipid A [MPLA],"plasma binding to immunogen peptides, adjuvant comparison",[1],better than R848
same,"plasma binding to MPER-specific proteins, adjuvant comparison",[2],better than R848
NEKDLLALDSWKNLWNWFSITKWLWYIK [MPER656.2],binding of 2F5 mAb to peptide-liposome construct,[3],lack of binding
QQEKNEQELLELDKWASLWNYKRWIILGLNKIVRMYS-biotin [consensus 2F5 epitope],2F5 mAb binding response,[4],494.6 response unit
QQEKNEQELLELDKWASSWNYKRWIILGLNKIVRMYS-biotin,off-rate of the mAb 2F5-peptide liposome complex,[4],significantly slower off-rates
same,2F5 mAb binding response,[4],616.7 response unit
